PubChem BioAssay (NCI)
Several values for one entry are separate records, joined by “and”; a condition that tells them apart may be missing. Equal entries are not always repeated.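 Test compounds were applied to cells in 96-well plates for 48 hours at 5 doses. GI50 = concentration required for 50% inhibition of growth. TGI marks complete inhibition of growth.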

Assays:
Experiment in all cases: DTP human tumour cell line panel, 48 h
786-0 renal = test system: 786-0 renal
A498 renal = test system: A498 renal
A549 NSCLC = test system: A549 NSCLC
ACHN renal = test system: ACHN renal
CAKI-1 renal = test system: CAKI-1 renal
CCRF-CEM leukemia = test system: CCRF-CEM leukemia
COLO 205 colon = test system: COLO 205 colon
DLD-1 colon = test system: DLD-1 colon
DMS 273 small cell lung = test system: DMS 273 small cell lung
EKVX NSCLC = test system: EKVX NSCLC
HCC-2998 colon = test system: HCC-2998 colon
HCT-116 colon = test system: HCT-116 colon
HCT-15 colon = test system: HCT-15 colon
HL-60(TB) leukemia = test system: HL-60(TB) leukemia
HOP-18 NSCLC = test system: HOP-18 NSCLC
HOP-62 NSCLC = test system: HOP-62 NSCLC
HOP-92 NSCLC = test system: HOP-92 NSCLC
HT29 colon = test system: HT29 colon
IGROV1 ovarian = test system: IGROV1 ovarian
K-562 leukemia = test system: K-562 leukemia
KM20L2 colon = test system: KM20L2 colon
LOX IMVI melanoma = test system: LOX IMVI melanoma
LXFL 529 NSCLC = test system: LXFL 529 NSCLC
M14 melanoma = test system: M14 melanoma
M19-MEL melanoma = test system: M19-MEL melanoma
MALME-3M melanoma = test system: MALME-3M melanoma
MOLT-4 leukemia = test system: MOLT-4 leukemia
NCI-H226 lung = test system: NCI-H226 lung
NCI-H23 lung = test system: NCI-H23 lung
NCI-H460 lung = test system: NCI-H460 lung
NCI-H522 lung = test system: NCI-H522 lung
OVCAR-3 ovarian = test system: OVCAR-3 ovarian
OVCAR-4 ovarian = test system: OVCAR-4 ovarian
OVCAR-5 ovarian = test system: OVCAR-5 ovarian
OVCAR-8 ovarian = test system: OVCAR-8 ovarian
RXF 393 renal = test system: RXF 393 renal
RXF-631 renal = test system: RXF-631 renal
SF-539 CNS = test system: SF-539 CNS
SK-MEL-2 melanoma = test system: SK-MEL-2 melanoma
SK-MEL-28 melanoma = test system: SK-MEL-28 melanoma
SK-MEL-5 melanoma = test system: SK-MEL-5 melanoma
SK-OV-3 ovarian = test system: SK-OV-3 ovarian
SN12C renal = test system: SN12C renal
SNB-19 CNS = test system: SNB-19 CNS
SNB-75 CNS = test system: SNB-75 CNS
SNB-78 CNS = test system: SNB-78 CNS
SR leukemia = test system: SR leukemia
SW-620 colon = test system: SW-620 colon
U251 CNS = test system: U251 CNS
UACC-257 melanoma = test system: UACC-257 melanoma
UO-31 renal = test system: UO-31 renal
DMS 114 small cell lung = test system: DMS 114 small cell lung
KM12 colon = test system: KM12 colon
RPMI-8226 leukemia = test system: RPMI-8226 leukemia
SF-268 CNS = test system: SF-268 CNS
SF-295 CNS = test system: SF-295 CNS
TK-10 renal = test system: TK-10 renal
UACC-62 melanoma = test system: UACC-62 melanoma
XF 498 CNS = test system: XF 498 CNS

Compound `Clc1cccc(N2CCN(CCCN3CCc4c([nH]c5ccccc45)C3c3cccnc3)CC2)c1` (stereo not given) has a GI50 (786-0 renal) of 7.08 µM, a TGI (786-0 renal) of 20.2 µM and a TGI (A498 renal) of 27.2 µM. The GI50 (A549 NSCLC) was 16.1 µM, the TGI (A549 NSCLC) was 36.9 µM and the TGI (ACHN renal) was 31.3 µM. It also gave a TGI (CAKI-1 renal) of 25.7 µM, a GI50 (CCRF-CEM leukemia) of 11.9 µM and a TGI (CCRF-CEM leukemia) greater than 100 µM. For the same compound, the GI50 (COLO 205 colon) was 5.42 µM, the TGI (COLO 205 colon) was 21.9 µM and the TGI (DLD-1 colon) was 27 µM. The GI50 (DMS 273 small cell lung) was 12.6 µM, the TGI (DMS 273 small cell lung) was 27.9 µM and the TGI (EKVX NSCLC) was 35.1 µM. For the same compound, the GI50 (HCC-2998 colon) was 3.06 µM, the TGI (HCC-2998 colon) was 11.9 µM and the GI50 (HCT-116 colon) was 6.97 µM. For the same compound, the TGI (HCT-116 colon) was 24.9 µM, the TGI (HCT-15 colon) was 21.8 µM and the GI50 (HL-60(TB) leukemia) was 4.63 µM. It also gave a TGI (HL-60(TB) leukemia) greater than 100 µM, a TGI (HOP-18 NSCLC) of 36 µM and a TGI (HOP-62 NSCLC) of 32.7 µM. For the same compound, the GI50 (HOP-92 NSCLC) was 12.8 µM, the TGI (HOP-92 NSCLC) was 31.3 µM and the GI50 (HT29 colon) was 3.18 µM. The TGI (HT29 colon) was 14.2 µM, the TGI (IGROV1 ovarian) was greater than 100 µM and the GI50 (K-562 leukemia) was 5.06 µM. The TGI (K-562 leukemia) was greater than 100 µM, the TGI (KM20L2 colon) was 18.8 µM and the TGI (LOX IMVI melanoma) was 37.9 µM. It also gave a GI50 (LXFL 529 NSCLC) of 11.3 µM, a TGI (LXFL 529 NSCLC) of 24.4 µM and a GI50 (M14 melanoma) of 2.47 µM. The TGI (M14 melanoma) was 4.96 µM and 5.78 µM, the TGI (M19-MEL melanoma) was 23.4 µM and the GI50 (MALME-3M melanoma) was 5.78 µM. For the same compound, the TGI (MALME-3M melanoma) was 8.97 µM and 21.6 µM, the GI50 (MOLT-4 leukemia) was 5.33 µM and the TGI (MOLT-4 leukemia) was 39.8 µM. It also gave a TGI (NCI-H226 lung) of 35.8 µM, a TGI (NCI-H23 lung) of 27 µM and a GI50 (NCI-H460 lung) of 7.85 µM. It also gave a TGI (NCI-H460 lung) of 23.7 µM, a TGI (NCI-H522 lung) of 25.7 µM and a GI50 (OVCAR-3 ovarian) of 9.24 µM. The TGI (OVCAR-3 ovarian) was 22.7 µM, the TGI (OVCAR-4 ovarian) was 25.1 µM and the GI50 (OVCAR-5 ovarian) was 8.66 µM. For the same compound, the TGI (OVCAR-5 ovarian) was 23.9 µM, the TGI (OVCAR-8 ovarian) was 26 µM and the GI50 (RXF 393 renal) was 11.5 µM. It also gave a TGI (RXF 393 renal) of 31 µM, a GI50 (RXF-631 renal) of 19.5 µM and a TGI (RXF-631 renal) greater than 100 µM. For the same compound, the GI50 (SF-539 CNS) was 11.7 µM, the TGI (SF-539 CNS) was 32.3 µM and the TGI (SK-MEL-2 melanoma) was 24.3 µM. It also gave a GI50 (SK-MEL-28 melanoma) of 5.58 µM, a TGI (SK-MEL-28 melanoma) of 20.4 µM and a GI50 (SK-MEL-5 melanoma) of 6.79 µM. It also gave a TGI (SK-MEL-5 melanoma) of 24.9 µM, a TGI (SK-OV-3 ovarian) of 32.2 µM and a TGI (SN12C renal) of 30.3 µM. For the same compound, the TGI (SNB-19 CNS) was greater than 100 µM, the TGI (SNB-75 CNS) was 26.7 µM and the GI50 (SNB-78 CNS) was 2.88 µM. For the same compound, the TGI (SNB-78 CNS) was 9.39 µM, the GI50 (SR leukemia) was 4.58 µM and the TGI (SR leukemia) was 7.34 µM and 24.6 µM. It also gave a TGI (SW-620 colon) of 38.1 µM, a TGI (U251 CNS) of 23.9 µM and a TGI (UACC-257 melanoma) of 12.1 µM. The TGI (UO-31 renal) was 18.5 µM.
For `CC1(c2cc3c(cc2Br)OCO3)SCCCS1`, the TGI (786-0 renal) was greater than 100 µM, the TGI (A498 renal) was greater than 100 µM and the TGI (A549 NSCLC) was greater than 100 µM. It also gave a TGI (ACHN renal) greater than 100 µM, a TGI (CCRF-CEM leukemia) greater than 100 µM and a TGI (COLO 205 colon) greater than 100 µM. The TGI (DLD-1 colon) was greater than 100 µM, the TGI (DMS 114 small cell lung) was greater than 100 µM and the TGI (DMS 273 small cell lung) was greater than 100 µM. It also gave a TGI (EKVX NSCLC) greater than 100 µM, a TGI (HCC-2998 colon) of 77.3 µM and a TGI (HCT-116 colon) greater than 100 µM. The TGI (HCT-15 colon) was greater than 100 µM, the TGI (HL-60(TB) leukemia) was 65.9 µM and the TGI (HOP-62 NSCLC) was greater than 100 µM. For the same compound, the TGI (HOP-92 NSCLC) was 51.7 µM, the TGI (HT29 colon) was greater than 100 µM and the TGI (IGROV1 ovarian) was greater than 100 µM. The TGI (K-562 leukemia) was greater than 100 µM, the TGI (KM12 colon) was greater than 100 µM and the TGI (KM20L2 colon) was greater than 100 µM. It also gave a TGI (LOX IMVI melanoma) greater than 100 µM, a TGI (LXFL 529 NSCLC) greater than 100 µM and a TGI (M14 melanoma) greater than 100 µM. For the same compound, the TGI (M19-MEL melanoma) was greater than 100 µM, the TGI (MOLT-4 leukemia) was 96.2 µM and the TGI (NCI-H226 lung) was greater than 100 µM. For the same compound, the TGI (NCI-H23 lung) was 45.5 µM, the TGI (NCI-H460 lung) was greater than 100 µM and the TGI (NCI-H522 lung) was 7.36 µM. For the same compound, the TGI (OVCAR-3 ovarian) was greater than 100 µM, the TGI (OVCAR-4 ovarian) was greater than 100 µM and the TGI (OVCAR-5 ovarian) was greater than 100 µM. It also gave a TGI (OVCAR-8 ovarian) greater than 100 µM, a TGI (RPMI-8226 leukemia) of 91.6 µM and a TGI (RXF 393 renal) of 37.3 µM. The TGI (RXF-631 renal) was greater than 100 µM, the TGI (SF-268 CNS) was greater than 100 µM and the TGI (SF-295 CNS) was greater than 100 µM. It also gave a TGI (SF-539 CNS) greater than 100 µM, a TGI (SK-MEL-2 melanoma) of 88.3 µM and a TGI (SK-MEL-28 melanoma) greater than 100 µM. For the same compound, the TGI (SK-MEL-5 melanoma) was 51 µM, the TGI (SK-OV-3 ovarian) was greater than 100 µM and the TGI (SN12C renal) was greater than 100 µM. For the same compound, the TGI (SNB-19 CNS) was greater than 100 µM, the TGI (SNB-75 CNS) was greater than 100 µM and the TGI (SNB-78 CNS) was greater than 100 µM. The TGI (SW-620 colon) was greater than 100 µM, the TGI (TK-10 renal) was greater than 100 µM and the TGI (U251 CNS) was greater than 100 µM. For the same compound, the TGI (UACC-62 melanoma) was greater than 100 µM, the TGI (UO-31 renal) was 85.1 µM and the TGI (XF 498 CNS) was 82.3 µM.
